“And” between values parts separate entries of the source, which are not always exact repeats. Equal entries are not always repeated. Toxic doses and inconclusive results are not listed. How the source made its calls: active means survival T/C of 150% or more; inactive means T/C below 125% in these data.
System: P388 leukemia ip, CD2F1 mice, survival T/C
Experiment: NCI In Vivo Anticancer Drug Screen. Data for tumor model P388 Leukemia (intraperitoneal) in CD2F1 (CDF1) mice
Details: endpoint: median survival time, higher = longer survival
In short: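 Mice carrying the transplanted tumor received test compound or vehicle. Survival was recorded in each group, and the value is the treated-group measurement divided by that of the vehicle-treated control group.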

[1] = dose: 6.25 mg/kg/injection, schedule: Q01DX009 (ip), vehicle: saline with Tween-80
[2] = dose: 12.5 mg/kg/injection, schedule: Q01DX009 (ip), vehicle: saline with Tween-80
[3] = dose: 25.0 mg/kg/injection, schedule: Q01DX009 (ip), vehicle: saline with Tween-80
[4] = dose: 25.0 mg/kg/injection, schedule: Q04DX003 (ip), vehicle: saline
[5] = dose: 50.0 mg/kg/injection, schedule: Q01DX005 (ip), vehicle: saline with Tween-80
[6] = dose: 100.0 mg/kg/injection, schedule: Q01DX005 (ip), vehicle: saline with Tween-80
[7] = dose: 200.0 mg/kg/injection, schedule: Q01DX005 (ip), vehicle: saline with Tween-80
[8] = dose: 50.0 mg/kg/injection, schedule: Q01DX009 (ip), vehicle: saline with Tween-80
[9] = dose: 100.0 mg/kg/injection, schedule: Q01DX009 (ip), vehicle: saline with Tween-80
[10] = dose: 200.0 mg/kg/injection, schedule: Q01DX009 (ip), vehicle: saline with Tween-80
[11] = dose: 100.0 mg/kg/injection, schedule: Q04DX002 (ip), vehicle: Klucel (hydroxypropylcellulose) (HPC)
[12] = dose: 200.0 mg/kg/injection, schedule: Q04DX002 (ip), vehicle: Klucel (hydroxypropylcellulose) (HPC)
[13] = dose: 400.0 mg/kg/injection, schedule: Q04DX002 (ip), vehicle: Klucel (hydroxypropylcellulose) (HPC)
[14] = dose: 25.0 mg/kg/injection, schedule: Q04DX003 (ip), vehicle: saline with Tween-80
[15] = dose: 50.0 mg/kg/injection, schedule: Q04DX003 (ip), vehicle: saline with Tween-80
[16] = dose: 100.0 mg/kg/injection, schedule: Q04DX003 (ip), vehicle: saline with Tween-80
[17] = dose: 200.0 mg/kg/injection, schedule: Q04DX003 (ip), vehicle: saline with Tween-80
[18] = dose: 60.0 mg/kg/injection, schedule: Q01DX005 (ip), vehicle: Klucel (hydroxypropylcellulose) (HPC)
[19] = dose: 120.0 mg/kg/injection, schedule: Q01DX005 (ip), vehicle: Klucel (hydroxypropylcellulose) (HPC)
[20] = dose: 400.0 mg/kg/injection, schedule: Q04DX003 (ip), vehicle: saline with Tween-80
[21] = dose: 100.0 mg/kg/injection, schedule: Q04DX003 (ip), vehicle: saline
[22] = dose: 200.0 mg/kg/injection, schedule: Q04DX003 (ip), vehicle: saline
[23] = dose: 400.0 mg/kg/injection, schedule: Q04DX003 (ip), vehicle: saline

Measured: T/C

COC(=O)/C=C\C=C(\CBr)C(=O)OC
inactive: [1] 91 % of control | dose: 6.25 mg/kg/injection, schedule: Q04DX003 (ip), vehicle: saline 110 % of control | [2] 95 % of control | dose: 12.5 mg/kg/injection, schedule: Q04DX003 (ip), vehicle: saline 110 % of control | [3] 91 % of control | [4] 110 % of control

COc1ccc(-n2cnc3[nH]ncc3c2=O)cc1
inactive: dose: 7.5 mg/kg/injection, schedule: Q01DX005 (ip), vehicle: Klucel (hydroxypropylcellulose) (HPC) 104 % of control | dose: 15.0 mg/kg/injection, schedule: Q01DX005 (ip), vehicle: Klucel (hydroxypropylcellulose) (HPC) 106 % of control | dose: 30.0 mg/kg/injection, schedule: Q01DX005 (ip), vehicle: Klucel (hydroxypropylcellulose) (HPC) 110 % of control

CCOC(=O)CC(CSCP(=O)(OCC)OCC)C(=O)OCC (stereo unspecified)
inactive: dose: 60.0 mg/kg/injection, schedule: Q01DX005 (ip), vehicle: saline with Tween-80 105 % of control | dose: 120.0 mg/kg/injection, schedule: Q01DX005 (ip), vehicle: saline with Tween-80 94 % of control | dose: 240.0 mg/kg/injection, schedule: Q01DX005 (ip), vehicle: saline with Tween-80 100 % of control

c1ccc2c(c1)Cc1ccnnc1-2
inactive: [5] 103 % of control | [6] 103 % of control | [7] 92 % of control

COC(=O)/C=C1\C=CC=CN1C
inactive: [8] 105 % of control | [9] 106 % of control | [10] 106 % of control

O=C1c2ccccc2C(=O)c2c(O)c(NCCO)cc(O)c21
inactive: [11] 92 % of control | [12] 101 % of control | [13] 93 % of control

O=C1C(=O)N(c2ccccc2Cl)C(=O)N1Cc1ccccc1
inactive: dose: 50.0 mg/kg/injection, schedule: Q01DX009 (ip), vehicle: Klucel (hydroxypropylcellulose) (HPC) 95 % of control | dose: 100.0 mg/kg/injection, schedule: Q01DX009 (ip), vehicle: Klucel (hydroxypropylcellulose) (HPC) 98 % of control | dose: 200.0 mg/kg/injection, schedule: Q01DX009 (ip), vehicle: Klucel (hydroxypropylcellulose) (HPC) 91 % of control

CCn1c(Cl)c(/C=N/NS(=O)(=O)c2ccc(C)cc2)c2cccc(/C=N\NS(=O)(=O)c3ccc(C)cc3)c21
inactive: dose: 50.0 mg/kg/injection, schedule: Q01DX001 (ip), vehicle: Klucel (hydroxypropylcellulose) (HPC) 99 % of control | dose: 100.0 mg/kg/injection, schedule: Q01DX001 (ip), vehicle: Klucel (hydroxypropylcellulose) (HPC) 96 % of control

CN(C)c1ccc(C(C#N)C(C#N)c2ccccc2)cc1 (stereo unspecified)
inactive: [1] 94 % of control | [2] 94 % of control | [3] 103 % of control | [8] 100 % of control

Cc1cc(C)c2ccc(C)c(N)c2n1
inactive: [5] 99 % of control | [6] 92 % of control | [7] 99 % of control

CCN=C1SCCCS1
inactive: [2] 103 % of control | [3] 118 % of control | [8] 113 % of control and 119 % of control | [9] 117 % of control

O=C(NCc1ccccc1)c1ccc(Cl)c(Cl)c1
inactive: [14] 101 % of control | [15] 104 % of control | [16] 90 % of control | [17] 95 % of control

O=C1OC(O)c2cccc3cccc1c23 (stereo unspecified)
inactive: [18] 98 % of control | [19] 100 % of control | dose: 240.0 mg/kg/injection, schedule: Q01DX005 (ip), vehicle: Klucel (hydroxypropylcellulose) (HPC) 94 % of control

O=C1CN(Cc2ccc(Cl)cc2)CC(=O)N2Cc3ccccc3CN12
inactive: [5] 102 % of control | [6] 104 % of control | [7] 103 % of control

CSC(=S)n1nc(C)c(N=Nc2ccc(Br)cc2)c1C
inactive: [11] 107 % of control | [12] 103 % of control | [13] 103 % of control

CCS[C@@H](C(O)C(O)C(O)C(O)CO)n1cnc2c(Cl)ncnc21 (stereo partly specified)
inactive: [5] 98 % of control | [6] 102 % of control | [7] 96 % of control

Cc1nc2c([N+](=O)[O-])c(N3CCOCC3)c([N+](=O)[O-])cc2[nH]1
inactive: [16] 98 % of control | [17] 103 % of control | [20] 101 % of control

N#CC1=C(Nc2ccccc2)SC(c2cccs2)NC1=O (stereo unspecified)
inactive: [18] 108 % of control | [19] 108 % of control

CCN(CC)CCNc1ccc(C)c2sc3ccc(OC)cc3c(=O)c12
inactive: [3] 115 % of control | [8] 115 % of control and 90 % of control

O=C(NC(CCS(=O)(=O)NO)C(=O)OCc1ccccc1)OCc1ccccc1 (stereo unspecified)
inactive: dose: 12.5 mg/kg/injection, schedule: Q01DX009 (ip), vehicle: other 100 % of control | dose: 25.0 mg/kg/injection, schedule: Q01DX009 (ip), vehicle: other 95 % of control | dose: 50.0 mg/kg/injection, schedule: Q01DX009 (ip), vehicle: other 109 % of control | dose: 100.0 mg/kg/injection, schedule: Q01DX009 (ip), vehicle: other 95 % of control | dose: 200.0 mg/kg/injection, schedule: Q01DX009 (ip), vehicle: other 92 % of control

CC(=O)Oc1ccc2ccc3nonc3c2c1
inactive: [5] 99 % of control | [6] 99 % of control | [7] 94 % of control

c1ccc(SCCC(Sc2ccccc2)Sc2ccccc2)cc1
inactive: dose: 50.0 mg/kg/injection, schedule: Q01DX009 (ip), vehicle: saline 100 % of control | dose: 100.0 mg/kg/injection, schedule: Q01DX009 (ip), vehicle: saline 106 % of control | dose: 200.0 mg/kg/injection, schedule: Q01DX009 (ip), vehicle: saline 106 % of control

Nc1nc2c(ncn2C2OC(CO)C(O)C2N)c(=O)[nH]1 (stereo unspecified)
inactive: [3] 106 % of control and 97 % of control | [14] 103 % of control | [4] 101 % of control | [8] 100 % of control and 107 % of control | [15] 96 % of control | dose: 50.0 mg/kg/injection, schedule: Q04DX003 (ip), vehicle: saline 104 % of control | [9] 106 % of control | [16] 101 % of control | [21] 100 % of control and 105 % of control | [10] 100 % of control | [17] 104 % of control | [22] 98 % of control and 108 % of control | [20] 101 % of control | [23] 105 % of control and 107 % of control

C=C1N(c2nc(Cl)nc(Cl)n2)c2ccccc2C1(C)C
inactive: [2] 113 % of control | [3] 104 % of control | [8] 124 % of control and 86 % of control

O=C(CCS(=O)(=O)CCC(=O)c1ccccc1)c1ccccc1
inactive: [21] 90 % of control | [22] 89 % of control | [23] 88 % of control
